# Results from patent publication US20130184302A1, “METHODS FOR TREATING IRRITABLE BOWEL SYNDROME (IBS) AND INFECTIONS” (priority 2011, published 2013).
# What was measured:
# Type in all cases: in vivo, human
# [1] = test system: C. difficile infection (CDI); assay: CDI trial rifaximin 400 mg TID vs vancomycin 125 mg QID: clinical success at Test of Cure
# Protocol: Criteria for entry into the trial were: • Age>=18 years old; • Had acute diarrhea at screening defined as >=3 unformed stools in the last 24 hours and at least one sign of enteric infection (fever, nausea, lose of appetite, vomiting, severe abdominal pain/discomfort); and • a positive C. diff stool toxin assay
# The primary efficacy endpoint of the study was defined as the proportion of subjects achieving clinical success. Specifically, clinical success was defined as the absence of severe abdominal pain at Test of Cure (TOC), absence of fever (<38° C.) at TOC, and <3 unformed stools for two consecutive days at TOC.
# The non-inferiority margin for the primary endpoint was defined as lower bound of 95% CI of delta above −15%.
# Clinical success was defined as the: Absence of severe abdominal pain at TOC, absence of fever (<38° C.) at TOC, and <3 unformed stools for two consecutive days at TOC. Test of cure defined as Day 14+/−1 day.
# subjects with IBS = assay: Analysis of two studies after 3 months: global IBS symptoms, abdominal pain, bloating responders; settings: for Responders: Abdominal pain reduction of 1 point in median: at least 2 weeks during PEP; for Global IBS symptoms: at least 2 out of 4 weeks adequate relief during weeks 3 through 6 (weekly question): 550 mg TID 14 days
# Description: A measure of efficacy is based on subjects' answers to the Weekly Subject Global Assessment (SGA) questions over the study duration in relation to their IBS symptoms.
# The study endpoints of the studies were Global IBS symptoms and AUC in abdominal pain during the study.
# The primary and secondary endpoints evaluated in this study were the effect of treatment on the percentage of subjects who reported adequate relief of Global IBS symptoms, reduction in abdominal pain and the adequate relief of IBS symptom of bloating.
# [2] = test system: C. difficile infection (CDI); assay: CDI trial: subgroup analysis of diarrhea at TOC; settings: for Diarrhea, number of subjects / Diarrhea, percent of subjects / No Diarrhea, number of subjects / No Diarrhea, percent of subjects: at TOC; for Diarrhea at TOC: Treatment Difference: Rifaximin vs Vancomycin
# Description: Tables 42 and 43 set forth a subgroup analysis of diarrhea at TOC.
# [3] = at TOC (Day 14+/−1), Rifaximin N = 117, Vancomycin N = 115
# [4] = subgroup Age <65, Rifaximin N = 69, Vancomycin N = 62
# [5] = subgroup Age >=65, Rifaximin N = 39, Vancomycin N = 49
# [6] = subgroup Female, Rifaximin N = 68, Vancomycin N = 64
# [7] = subgroup Male, Rifaximin N = 40, Vancomycin N = 47
compound,measurement,setting,value
"CO[C@H]1/C=C/O[C@@]2(C)Oc3c(C)c(O)c4c(O)c(c5c(nc6cc(C)ccn65)c4c3C2=O)NC(=O)/C(C)=C\C=C\[C@H](C)[C@H](O)[C@@H](C)[C@@H](O)[C@@H](C)[C@H](OC(C)=O)[C@@H]1C [Rifaximin, (2S,16Z,18E,20S,21S,22R, 23R,24R,25S,26S,27S,28E)-5,6,21,23,25 Pentahydroxy-27-methoxy-2,4,11,16,20,22,24,26-octamethyl-2,7-(epoxypentadeca-(1,11,13)trienimino) benzofuro (4,5-e) pyrido(1,2,-a) benzimidazole-1,15(2H)-dione,25-acetate]",Clinical Success: Treatment Difference,"[1]; Rifaximin vs Vancomycin, at TOC",−6.2%
same,"Clinical Success: Yes, number of subjects","[1]; at TOC (Day 14+/−1), Rifaximin 400 mg TID N = 117, Vancomycin 125 mg QID N = 115",67
same,"Clinical Success: No, number of subjects",[1]; [3],50
same,"Clinical Success: No, percent of subjects",[1]; [3],(43%)
same,"Clinical Success: Yes, percent of subjects",[1]; [3],(57%)
same,IBS symptom of Bloating: at least 2 out of 4 weeks adequate relief during weeks 3 through 6,subjects with IBS; Combined,30% vs 40%
same,Responders: Abdominal Pain reduction of 2 point in mean,subjects with IBS; Combined,18% vs 25%
same,Responders: Abdominal Pain reduction of 2 point in median,subjects with IBS; Combined,32% vs 39%
same,Responders: Abdominal Pain reduction of 3 point in mean,subjects with IBS; Combined,6% vs 7%
same,Responders: Abdominal Pain reduction of 3 point in median,subjects with IBS; Combined,18% vs 21%
same,Responders: Abdominal pain reduction of 1 point in mean,subjects with IBS; Combined,42% vs 52%
same,Responders: Daily abdominal pain <2,subjects with IBS; Combined,31% vs 39%
same,Responders: Overall reduction of mean weekly abdominal pain by > = 25%,subjects with IBS; Combined,47% vs 57%
same,Responders: Overall reduction of mean weekly abdominal pain by > = 50%,subjects with IBS; Combined,28% vs 35%
same,Responders: Overall reduction of mean weekly abdominal pain by > = 75%,subjects with IBS; Combined,11% vs 14%
same,Responders: Overall reduction of median weekly abdominal pain by > = 25%,subjects with IBS; Combined,52% vs 62%
same,Responders: Overall reduction of median weekly abdominal pain by > = 50%,subjects with IBS; Combined,34% vs 44%
same,Responders: Overall reduction of median weekly abdominal pain by > = 75%,subjects with IBS; Combined,18% vs 21%
same,Responders: Abdominal pain reduction of 1 point in median,subjects with IBS; Combined,53% vs 63%
same,IBS symptom of Bloating: at least 2 out of 4 weeks adequate relief during weeks 3 through 6,subjects with IBS; Study 2,32% vs 41%
same,Responders: Abdominal Pain reduction of 2 point in mean,subjects with IBS; Study 2,18% vs 25%
same,Responders: Abdominal Pain reduction of 2 point in median,subjects with IBS; Study 2,30% vs 41%
same,Responders: Abdominal Pain reduction of 3 point in mean,subjects with IBS; Study 2,6% vs 7%
same,Responders: Abdominal Pain reduction of 3 point in median,subjects with IBS; Study 2,17% vs 21%
same,Responders: Abdominal pain reduction of 1 point in mean,subjects with IBS; Study 2,43% vs 52%
same,Responders: Daily abdominal pain <2,subjects with IBS; Study 2,31% vs 39%
same,Responders: Overall reduction of mean weekly abdominal pain by > = 25%,subjects with IBS; Study 2,47% vs 58%
same,Responders: Overall reduction of mean weekly abdominal pain by > = 50%,subjects with IBS; Study 2,29% vs 35%
same,Responders: Overall reduction of mean weekly abdominal pain by > = 75%,subjects with IBS; Study 2,11% vs 14%
same,Responders: Overall reduction of median weekly abdominal pain by > = 25%,subjects with IBS; Study 2,52% vs 62%
same,Responders: Overall reduction of median weekly abdominal pain by > = 50%,subjects with IBS; Study 2,35% vs 44%
same,Responders: Overall reduction of median weekly abdominal pain by > = 75%,subjects with IBS; Study 2,17% vs 20%
same,Responders: Abdominal pain reduction of 1 point in median,subjects with IBS; Study 2,53% vs 62%
same,IBS symptom of Bloating: at least 2 out of 4 weeks adequate relief during weeks 3 through 6,subjects with IBS; Study [1],29% vs 40%
same,Responders: Abdominal Pain reduction of 2 point in mean,subjects with IBS; Study [1],18% vs 26%
same,Responders: Abdominal Pain reduction of 2 point in median,subjects with IBS; Study [1],33% vs 37%
same,Responders: Abdominal Pain reduction of 3 point in mean,subjects with IBS; Study [1],6% vs 7%
same,Responders: Abdominal Pain reduction of 3 point in median,subjects with IBS; Study [1],19% vs 22%
same,Responders: Abdominal pain reduction of 1 point in mean,subjects with IBS; Study [1],41% vs 52%
same,Responders: Overall reduction of mean weekly abdominal pain by > = 25%,subjects with IBS; Study [1],47% vs 56%
same,Responders: Overall reduction of mean weekly abdominal pain by > = 50%,subjects with IBS; Study [1],28% vs 36%
same,Responders: Overall reduction of mean weekly abdominal pain by > = 75%,subjects with IBS; Study [1],10% vs 14%
same,Responders: Overall reduction of median weekly abdominal pain by > = 25%,subjects with IBS; Study [1],52% vs 63%
same,Responders: Overall reduction of median weekly abdominal pain by > = 50%,subjects with IBS; Study [1],34% vs 44%
same,Responders: Overall reduction of median weekly abdominal pain by > = 75%,subjects with IBS; Study [1],19% vs 23%
same,Responders: Abdominal pain reduction of 1 point in median,subjects with IBS; Study [1],52% vs 63%
same,Responders: Daily abdominal pain <2,"subjects with IBS; Study [1], at least 50% of days in a week for at least 2 weeks during PEP",32% vs 40%
same,Global IBS symptoms: at least 2 out of 4 weeks adequate relief during weeks 3 through 6 (weekly question),"subjects with IBS; first column (Study 1), second figure of 'x vs y'",41%
same,Global IBS symptoms: at least 2 out of 4 weeks adequate relief during weeks 3 through 6 (weekly question),subjects with IBS; second column (Study 2),41%
same,Global IBS symptoms: at least 2 out of 4 weeks adequate relief during weeks 3 through 6 (weekly question),subjects with IBS; third column (Combined),41%
same,"Diarrhea, number of subjects",[2]; [4],16
same,"Diarrhea, percent of subjects",[2]; [4],(23%)
same,"No Diarrhea, number of subjects",[2]; [4],53
same,"No Diarrhea, percent of subjects",[2]; [4],(77%)
same,"Diarrhea, number of subjects",[2]; [5],6
same,"Diarrhea, percent of subjects",[2]; [5],(15%)
same,"No Diarrhea, number of subjects",[2]; [5],33
same,"No Diarrhea, percent of subjects",[2]; [5],(85%)
same,"Diarrhea, number of subjects",[2]; [6],14
same,"Diarrhea, percent of subjects",[2]; [6],(21%)
same,"No Diarrhea, number of subjects",[2]; [6],54
same,"No Diarrhea, percent of subjects",[2]; [6],(79%)
same,"Diarrhea, number of subjects",[2]; [7],8
same,"Diarrhea, percent of subjects",[2]; [7],(20%)
same,"No Diarrhea, number of subjects",[2]; [7],32
same,"No Diarrhea, percent of subjects",[2]; [7],(80%)
same,Diarrhea at TOC: Treatment Difference,[2]; subgroup Age <65,−3.8%
same,Diarrhea at TOC: Treatment Difference,[2]; subgroup Age >=65,3.0%
same,Diarrhea at TOC: Treatment Difference,[2]; subgroup Female,−3.4%
same,Diarrhea at TOC: Treatment Difference,[2]; subgroup Male,1.3%
